# In ChEMBL document CHEMBL1151512, “Design and synthesis of new potential photoaffinity labels for mammalian squalene epoxidase” (Bioorg Med Chem Lett, 1997):
# System: HepG2
# Test: In vitro cholesterol biosynthesis inhibition in human HepG2 by measuring the extend of cholesterol radiolabeling after incubation with [14C]mevalonate.
# Type: functional, cell-based
row,Compound,IC50 [nM]
1,CCN(CC#Cc1ccccc1N=[N+]=[N-])Cc1cccc(OCc2cc(-c3ccsc3)cs2)c1,> 100000
2,CCN(CC#Cc1ccc(N=[N+]=[N-])cc1)Cc1cccc(OCc2cc(-c3ccsc3)cs2)c1,2100
3,CCN(CC#Cc1ccccc1)Cc1cccc(OCc2cc(-c3ccsc3)cs2)c1,70
4,CCN(CC#Cc1cccc(N=[N+]=[N-])c1)Cc1cccc(OCc2cc(-c3ccsc3)cs2)c1,540

# Continued, values first:
row,IC50 [nM],Compound
1,60,CCN(C/C=C/C#CC(C)(C)C)Cc1cccc(OC[Si](C)(C)c2ccc(C#N)cc2)c1
2,1200,CCN(C/C=C/C#CC(C)(C)C)Cc1cccc(OC[Si](C)(C)c2ccc(N=[N+]=[N-])cc2)c1
